Experimental data reported in patent US12215093B2, “Bicyclic carboxamides and methods of use thereof” (Tempest Therapeutics, Inc., priority 2018, dated 2025).
Like-named read-outs stand apart in the source and are kept apart here.

Tests used:
[1] = target: T1, EP2 (Homo sapiens, UniProt P43116); assay: cell-based;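 note: functional calcium flux assay in stably transfected HEK293 cells expressing EP2 coupled via a promiscuous G protein, clytin luminescence read as area under the curve, 30 min compound preincubation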
T1 sequence (P43116 whole entry): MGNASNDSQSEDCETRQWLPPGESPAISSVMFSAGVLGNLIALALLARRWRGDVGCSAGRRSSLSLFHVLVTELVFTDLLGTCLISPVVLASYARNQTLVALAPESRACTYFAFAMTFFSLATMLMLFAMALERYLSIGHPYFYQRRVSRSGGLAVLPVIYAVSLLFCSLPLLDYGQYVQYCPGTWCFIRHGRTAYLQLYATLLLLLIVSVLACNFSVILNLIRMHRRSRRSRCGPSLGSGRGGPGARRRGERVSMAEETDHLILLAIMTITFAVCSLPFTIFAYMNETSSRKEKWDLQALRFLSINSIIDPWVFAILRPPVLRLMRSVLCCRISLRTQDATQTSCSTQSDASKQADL
Method: (§1) Each receptor subtype has an additional promiscuous G protein added in order to couple the aforementioned receptor to the calcium signaling pathway. The parental cell line used also expresses a novel variant of clytin, a calcium-activated photo-protein, to enable sensitive luminescent detection. Briefly, cells were plated at 50,000 cells-per-well in black, clear bottom 96-well plates. The plated cells were allowed to sit at room temperature for 30 min prior to transferring to a humidified, 37° C., 5% CO2 incubator for 18 to 24 h. Assay buffer (HBSS with 20 mM HEPES) and loading buffer (assay buffer plus 10 μM coelenterazine) were prepared on the day of the assay. Assays were performed by aspirating media from the assay plate and washing once with assay buffer, then replacing with loading buffer and allowing the cells to incubate for 1.5 h at room temperature. Compounds were prepared in assay buffer at a 3× final concentration in non-binding plates. Compounds were added to the cell plates and incubated for 30 min at room temperature. The prostanoid receptor ligand PGE2 was prepared at a 4× dilution ratio for a final concentration of 10 nM. Plates were run on a Flexstation™ using a 100 ms integration luminescence protocol for a total of 60 sec with ligand addition at 15 sec. Data were obtained from relative light units as measured by area under the curve.

[2] = target: T2, EP4 (Homo sapiens, UniProt P35408); assay: Functional calcium flux assay, EP4; format: cell-based; conditions: stably transfected HEK293 cells; PGE2 10 nM; read-out: EP4 Ca2+-flux assay IC50
T2 construct: host or cells: stably transfected HEK293 cells co-expressing a promiscuous G protein and a clytin variant
T2 sequence (P35408 whole entry): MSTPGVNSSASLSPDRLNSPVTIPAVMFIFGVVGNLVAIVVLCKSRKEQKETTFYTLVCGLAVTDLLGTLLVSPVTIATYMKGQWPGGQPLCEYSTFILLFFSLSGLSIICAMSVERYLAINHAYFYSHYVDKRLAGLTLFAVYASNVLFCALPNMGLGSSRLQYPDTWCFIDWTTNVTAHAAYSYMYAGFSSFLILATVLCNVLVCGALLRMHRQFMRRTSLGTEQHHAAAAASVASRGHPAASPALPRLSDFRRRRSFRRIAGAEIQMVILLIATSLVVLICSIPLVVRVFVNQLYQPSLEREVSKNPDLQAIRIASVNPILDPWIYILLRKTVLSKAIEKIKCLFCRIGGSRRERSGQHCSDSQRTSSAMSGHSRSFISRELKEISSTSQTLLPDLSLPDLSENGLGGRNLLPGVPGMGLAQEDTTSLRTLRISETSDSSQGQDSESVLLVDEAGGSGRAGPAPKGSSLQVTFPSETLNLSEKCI

[3] = target: T1, EP2
Method: as §1

Row | Compound | IC50 [1] [nM] | IC50 [2] [nM] | IC50 [3] [nM]
1 | CC(C)(C)c1ccc(Cn2ccc3c(Cl)ccc(C(=O)NC4CC5(C4)CC(C(=O)O)C5)c32)cc1 (racemic) [Example 7, (racemic)-6-(1-(4-(tert-Butyl)benzyl)-4-chloro-1H-indole-7-carboxamido)spiro[3.3]heptane-2-carboxylic acid] | < 25 | < 1 | –
2 | O=C(NC1CC2(C1)CC(C(=O)O)C2)c1ccc(F)c2ccn(Cc3ccc(-c4ccccc4)c(F)c3)c12 (racemic) [Example 10, (racemic)-6-(4-Fluoro-1-((2-fluoro-[1,1′-biphenyl]-4-yl)methyl)-1H-indole-7-carboxamido)spiro[3.3]heptane-2-carboxylic acid] | < 25 | < 1 | –
3 | COc1ccc(C(=O)NC2CC3(CC(CC(=O)O)C3)C2)c2c1cnn2Cc1ccc(-c2ccccc2)cc1 (stereo not shown) [Example 161, (Ra)-2-(6-(1-([1,1′-Biphenyl]-4-ylmethyl)-4-methoxy-1H-indazole-7-carboxamido)spiro[3.3]heptan-2-yl)acetic acid] | – | < 1 | 63
4 | O=C(O)CC1CC2(C1)CC(NC(=O)c1ccc(OC(F)F)c3cnn(Cc4ccc(-c5ccccc5)cc4)c13)C2 (stereo not shown) [Example 162, (Ra)-2-(6-(1-([1,1′-Biphenyl]-4-ylmethyl)-4-(difluoromethoxy)-1H-indazole-7-carboxamido)spiro[3.3]heptan-2-yl)acetic acid] | – | 1.2 | 52
5 | O=C(NC1CC2(C1)CC(C(=O)O)C2)c1cc(OC(F)F)cc2cnn(Cc3ccc(-c4ccccc4)cc3)c12 (stereo not shown) [Example 163] | – | < 1 | 30
6 | COc1cc(C(=O)NC2CC3(CC(CC(=O)O)C3)C2)c2c(cnn2Cc2ccc(-c3ccccc3)cc2)c1 (stereo not shown) [Example 164, (Ra)-2-(6-(1-([1,1′-Biphenyl]-4-ylmethyl)-5-methoxy-1H-indazole-7-carboxamido)spiro[3.3]heptan-2-yl)acetic acid] | – | < 1 | < 25
7 | O=C(O)CC1CC2(C1)CC(NC(=O)c1cc(OC(F)F)cc3cnn(Cc4ccc(-c5ccccc5)cc4)c13)C2 (stereo not shown) [Example 165, (Ra)-2-(6-(1-([1,1′-Biphenyl]-4-ylmethyl)-5-(difluoromethoxy)-1H-indazole-7-carboxamido)spiro[3.3]heptan-2-yl)acetic acid] | – | 1 | < 25
8 | O=C(O)CC1CC2(C1)CC(NC(=O)c1cc(Cl)c(F)c3cnn(Cc4ccc(-c5ccccc5)cc4)c13)C2 (stereo not shown) [Example 170, (Ra)-2-(6-(1-([1,1′-Biphenyl]-4-ylmethyl)-5-chloro-4-fluoro-1H-indazole-7-carboxamido)spiro[3.3]heptan-2-yl)acetic acid] | – | 5.1 | < 25
9 | COc1c(Cl)cc(C(=O)NC2CC3(CC(CC(=O)O)C3)C2)c2c1cnn2Cc1ccc(-c2ccccc2)cc1 (stereo not shown) [Example 171, (Ra)-2-(6-(1-([1,1′-Biphenyl]-4-ylmethyl)-5-chloro-4-methoxy-1H-indazole-7-carboxamido)spiro[3.3]heptan-2-yl)acetic acid] | – | 1.4 | < 25
10 | COc1ccc2cc(Cn3ncc4c(Cl)ccc(C(=O)N[C@H]5CC6(C5)C[C@H](C(=O)O)C6)c43)ccc2n1 (stereo partly shown) [Example 175, (Sa)-6-(4-Chloro-1-((2-methoxyquinolin-6-yl)methyl)-1H-indazole-7-carboxamido)spiro[3.3]heptane-2-carboxylic acid] | – | 5.6 | < 25

Now from value to compound:

Row | IC50 [1] [nM] | IC50 [2] [nM] | IC50 [3] [nM] | Compound
11 | 34 | < 1 | – | O=C(NC1CC2(C1)CC(C(=O)O)C2)c1ccc(F)c2ccn(Cc3ccc(OC(F)(F)F)cc3)c12 (racemic) [Example 1, (racemic)-6-(4-Fluoro-1-(4-(trifluoromethoxy)benzyl)-1H-indole-7-carboxamido)spiro[3.3]heptane-2-carboxylic acid]
12 | < 25 | < 1 | – | O=C(NC1CC2(C1)CC(C(=O)O)C2)c1ccc(F)c2ccn(Cc3ccc4cc(F)ccc4c3)c12 (racemic) [Example 5, (racemic)-6-(4-fluoro-1-((6-fluoronaphthalen-2-yl)methyl)-1H-indole-7-carboxamido)spiro[3.3]heptane-2-carboxylic acid]
13 | < 25 | < 1 | – | COc1ccc(-c2ccc(Cn3ccc4c(F)ccc(C(=O)NC5CC6(C5)CC(C(=O)O)C6)c43)cc2)cc1 (racemic) [Example 12, (racemic)-6-(4-fluoro-1-((4′-methoxy-[1,1′-biphenyl]-4-yl)methyl)-1H-indole-7-carboxamido)spiro[3.3]heptane-2-carboxylic acid]
14 | 39 | < 1 | – | N#Cc1ccc(-c2ccc(Cn3ccc4c(F)ccc(C(=O)NC5CC6(C5)CC(C(=O)O)C6)c43)cc2)cc1 (racemic) [Example 13, (racemic)-6-(1-((4′-cyano-[1,1′-biphenyl]-4-yl)methyl)-4-fluoro-1H-indole-7-carboxamido)spiro[3.3]heptane-2-carboxylic acid]
15 | < 25 | < 1 | – | COc1cccc(-c2ccc(Cn3ccc4c(F)ccc(C(=O)NC5CC6(C5)CC(C(=O)O)C6)c43)cc2)c1 (racemic) [Example 14, (racemic)-6-(4-fluoro-1-((3′-methoxy-[1,1′-biphenyl]-4-yl)methyl)-1H-indole-7-carboxamido)spiro[3.3]heptane-2-carboxylic acid]
16 | < 25 | < 1 | – | N#Cc1cccc(-c2ccc(Cn3ccc4c(F)ccc(C(=O)NC5CC6(C5)CC(C(=O)O)C6)c43)cc2)c1 (racemic) [Example 15, (racemic)-6-(1-((3′-cyano-[1,1′-biphenyl]-4-yl)methyl)-4-fluoro-1H-indole-7-carboxamido)spiro[3.3]heptane-2-carboxylic acid]
17 | < 25 | < 1 | – | COc1ccc(-c2ccc(Cn3ccc4c(F)ccc(C(=O)NC5CC6(C5)CC(C(=O)O)C6)c43)cc2)cc1F (racemic) [Example 16, (racemic)-6-(4-fluoro-1-((3′-fluoro-4′-methoxy-[1,1′-biphenyl]-4-yl)methyl)-1H-indole-7-carboxamido)spiro[3.3]heptane-2-carboxylic acid]
18 | < 25 | 7 | – | COc1ncc(-c2ccc(Cn3ccc4c(F)ccc(C(=O)NC5CC6(C5)CC(C(=O)O)C6)c43)cc2)cc1Cl (racemic) [Example 17, (racemic)-6-(1-(4-(5-Chloro-6-methoxypyridin-3-yl)benzyl)-4-fluoro-1H-indole-7-carboxamido)spiro[3.3]heptane-2-carboxylic acid]
19 | 34 | < 1 | – | COc1ccccc1-c1ccc(Cn2ccc3c(F)ccc(C(=O)NC4CC5(C4)CC(C(=O)O)C5)c32)cc1 (racemic) [Example 18, (racemic)-6-(4-fluoro-1-((2′-methoxy-[1,1′-biphenyl]-4-yl)methyl)-1H-indole-7-carboxamido)spiro[3.3]heptane-2-carboxylic acid]
20 | < 25 | < 1 | – | COc1cc(-c2ccc(Cn3ccc4c(F)ccc(C(=O)NC5CC6(C5)CC(C(=O)O)C6)c43)cc2)ccc1F (racemic) [Example 19, (racemic)-6-(4-fluoro-1-((4′-fluoro-3′-methoxy-[1,1′-biphenyl]-4-yl)methyl)-1H-indole-7-carboxamido)spiro[3.3]heptane-2-carboxylic acid]
